Data as given in PubChem BioAssay (NCI).
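Interpolation was linear, between the two tested concentrations surrounding the appropriate level; five concentrations were tested over 48 hours in 96-well plates. At the TGI there is no net growth.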

Experiments:
Assay in all cases: NCI tumour cell line growth inhibition, 48 h
CAKI-1 renal = system: CAKI-1 renal
SK-MEL-2 melanoma = system: SK-MEL-2 melanoma
NCI-H522 lung = system: NCI-H522 lung
A549 NSCLC = system: A549 NSCLC
A498 renal = system: A498 renal
OVCAR-4 ovarian = system: OVCAR-4 ovarian
KM12 colon = system: KM12 colon
SN12C renal = system: SN12C renal
SNB-75 CNS = system: SNB-75 CNS
SNB-19 CNS = system: SNB-19 CNS
MALME-3M melanoma = system: MALME-3M melanoma
SNB-78 CNS = system: SNB-78 CNS
UACC-62 melanoma = system: UACC-62 melanoma
LOX IMVI melanoma = system: LOX IMVI melanoma
MOLT-4 leukemia = system: MOLT-4 leukemia
SK-MEL-28 melanoma = system: SK-MEL-28 melanoma
NCI-H23 lung = system: NCI-H23 lung
HCT-116 colon = system: HCT-116 colon
XF 498 CNS = system: XF 498 CNS
SK-OV-3 ovarian = system: SK-OV-3 ovarian
RXF-631 renal = system: RXF-631 renal
IGROV1 ovarian = system: IGROV1 ovarian
SF-539 CNS = system: SF-539 CNS
ACHN renal = system: ACHN renal
K-562 leukemia = system: K-562 leukemia
SR leukemia = system: SR leukemia
HOP-62 NSCLC = system: HOP-62 NSCLC
DLD-1 colon = system: DLD-1 colon
SK-MEL-5 melanoma = system: SK-MEL-5 melanoma
OVCAR-5 ovarian = system: OVCAR-5 ovarian
TK-10 renal = system: TK-10 renal
NCI-H226 lung = system: NCI-H226 lung
M14 melanoma = system: M14 melanoma
HCT-15 colon = system: HCT-15 colon
786-0 renal = system: 786-0 renal
DMS 273 small cell lung = system: DMS 273 small cell lung
COLO 205 colon = system: COLO 205 colon
RPMI-8226 leukemia = system: RPMI-8226 leukemia
HL-60(TB) leukemia = system: HL-60(TB) leukemia
SF-268 CNS = system: SF-268 CNS
SW-620 colon = system: SW-620 colon
HT29 colon = system: HT29 colon
UACC-257 melanoma = system: UACC-257 melanoma
OVCAR-3 ovarian = system: OVCAR-3 ovarian
RXF 393 renal = system: RXF 393 renal
EKVX NSCLC = system: EKVX NSCLC
NCI-H460 lung = system: NCI-H460 lung
OVCAR-8 ovarian = system: OVCAR-8 ovarian
LXFL 529 NSCLC = system: LXFL 529 NSCLC
KM20L2 colon = system: KM20L2 colon
U251 CNS = system: U251 CNS
SF-295 CNS = system: SF-295 CNS
HOP-18 NSCLC = system: HOP-18 NSCLC
DMS 114 small cell lung = system: DMS 114 small cell lung
CCRF-CEM leukemia = system: CCRF-CEM leukemia
UO-31 renal = system: UO-31 renal
HOP-92 NSCLC = system: HOP-92 NSCLC
M19-MEL melanoma = system: M19-MEL melanoma
HCC-2998 colon = system: HCC-2998 colon
P388 leukemia = system: P388 leukemia

O=C(CC1(O)C(=O)Nc2c(Cl)cc(Cl)cc21)c1cccc2ccccc12 (configuration not stated) showed a TGI (CAKI-1 renal) of 25.3 µM, a TGI (SK-MEL-2 melanoma) of 32.6 µM and a TGI (NCI-H522 lung) of 28.9 µM. For the same molecule, the TGI (A549 NSCLC) was 29.8 µM, the TGI (A498 renal) was 37.3 µM and the TGI (OVCAR-4 ovarian) was 25.4 µM. The TGI (KM12 colon) was 31.5 µM, the TGI (SN12C renal) was 34 µM and the TGI (SNB-75 CNS) was 33.1 µM. The TGI (SNB-19 CNS) was 27.9 µM, the TGI (MALME-3M melanoma) was 35.2 µM and the TGI (SNB-78 CNS) was 46.6 µM. It also gave a TGI (UACC-62 melanoma) of 28.9 µM, a TGI (LOX IMVI melanoma) of 32.5 µM and a TGI (MOLT-4 leukemia) of 66.9 µM. For the same molecule, the TGI (SK-MEL-28 melanoma) was 34.1 µM, the TGI (NCI-H23 lung) was 32.8 µM and the TGI (HCT-116 colon) was 28.5 µM. The TGI (XF 498 CNS) was 34.8 µM, the TGI (SK-OV-3 ovarian) was 30.2 µM and the TGI (RXF-631 renal) was 43.3 µM. For the same molecule, the TGI (IGROV1 ovarian) was 36.9 µM, the TGI (SF-539 CNS) was 32.4 µM and the TGI (ACHN renal) was 30.8 µM. It also gave a TGI (K-562 leukemia) of 36.6 µM, a TGI (SR leukemia) of 38.5 µM and a TGI (HOP-62 NSCLC) of 30.6 µM. It also gave a TGI (DLD-1 colon) of 33 µM, a TGI (SK-MEL-5 melanoma) of 28.4 µM and a TGI (OVCAR-5 ovarian) of 37.1 µM. For the same molecule, the TGI (TK-10 renal) was 27.3 µM, the TGI (NCI-H226 lung) was 31.1 µM and the TGI (M14 melanoma) was 30.5 µM. For the same molecule, the TGI (HCT-15 colon) was 31 µM, the TGI (786-0 renal) was 29.7 µM and the TGI (DMS 273 small cell lung) was 27.5 µM. The TGI (COLO 205 colon) was 31.4 µM, the TGI (RPMI-8226 leukemia) was 47.4 µM and the TGI (HL-60(TB) leukemia) was 26.5 µM. The TGI (SF-268 CNS) was 40.4 µM, the TGI (SW-620 colon) was 31.8 µM and the TGI (HT29 colon) was 33.8 µM. It also gave a TGI (UACC-257 melanoma) of 29.8 µM, a TGI (OVCAR-3 ovarian) of 30 µM and a TGI (RXF 393 renal) of 37.1 µM. The TGI (EKVX NSCLC) was 29.7 µM, the TGI (NCI-H460 lung) was 31.1 µM and the TGI (OVCAR-8 ovarian) was 32.2 µM. For the same molecule, the TGI (LXFL 529 NSCLC) was 28.6 µM, the TGI (KM20L2 colon) was 34.1 µM and the TGI (U251 CNS) was 29.2 µM. The TGI (SF-295 CNS) was 29.2 µM, the TGI (HOP-18 NSCLC) was 32.2 µM and the TGI (DMS 114 small cell lung) was 35.6 µM. For the same molecule, the TGI (CCRF-CEM leukemia) was 41.3 µM.

CS(=O)(=O)N(N(CCCl)S(=O)(=O)c1ccccc1)S(C)(=O)=O was tested, and the TGI (UO-31 renal) was over 100 µM, the TGI (CAKI-1 renal) was over 100 µM and the TGI (SK-MEL-2 melanoma) was over 100 µM. It also gave a TGI (NCI-H522 lung) of over 100 µM, a TGI (A549 NSCLC) of over 100 µM and a TGI (OVCAR-4 ovarian) of over 100 µM. It also gave a TGI (KM12 colon) of over 100 µM, a TGI (SN12C renal) of over 100 µM and a TGI (SNB-75 CNS) of over 100 µM. For the same molecule, the TGI (SNB-19 CNS) was over 100 µM, the TGI (MALME-3M melanoma) was over 100 µM and the TGI (UACC-62 melanoma) was over 100 µM. For the same molecule, the TGI (MOLT-4 leukemia) was over 100 µM, the TGI (SK-MEL-28 melanoma) was over 100 µM and the TGI (NCI-H23 lung) was over 100 µM. It also gave a TGI (HCT-116 colon) of over 100 µM, a TGI (XF 498 CNS) of over 100 µM and a TGI (HOP-92 NSCLC) of over 100 µM. It also gave a TGI (RXF-631 renal) of over 100 µM, a TGI (M19-MEL melanoma) of over 100 µM and a TGI (SF-539 CNS) of over 100 µM. For the same molecule, the TGI (ACHN renal) was over 100 µM, the TGI (K-562 leukemia) was over 100 µM and the TGI (SR leukemia) was over 100 µM. It also gave a TGI (HOP-62 NSCLC) of over 100 µM, a TGI (DLD-1 colon) of over 100 µM and a TGI (SK-MEL-5 melanoma) of over 100 µM. The TGI (TK-10 renal) was over 100 µM, the TGI (HCC-2998 colon) was over 100 µM and the TGI (NCI-H226 lung) was over 100 µM. It also gave a TGI (M14 melanoma) of over 100 µM, a TGI (HCT-15 colon) of over 100 µM and a TGI (786-0 renal) of over 100 µM. It also gave a TGI (DMS 273 small cell lung) of over 100 µM, a TGI (COLO 205 colon) of over 100 µM and a TGI (RPMI-8226 leukemia) of over 100 µM. The TGI (HL-60(TB) leukemia) was over 100 µM, the TGI (SF-268 CNS) was over 100 µM and the TGI (SW-620 colon) was over 100 µM. For the same molecule, the TGI (HT29 colon) was over 100 µM, the TGI (UACC-257 melanoma) was over 100 µM and the TGI (OVCAR-3 ovarian) was over 100 µM. It also gave a TGI (RXF 393 renal) of over 100 µM, a TGI (EKVX NSCLC) of over 100 µM and a TGI (NCI-H460 lung) of over 100 µM. For the same molecule, the TGI (OVCAR-8 ovarian) was over 100 µM, the TGI (LXFL 529 NSCLC) was over 100 µM and the TGI (KM20L2 colon) was over 100 µM. The TGI (U251 CNS) was over 100 µM, the TGI (SF-295 CNS) was over 100 µM and the TGI (HOP-18 NSCLC) was over 100 µM. It also gave a TGI (CCRF-CEM leukemia) of over 100 µM.

Molecule C1CCN(c2nc(=[N+]3CCCCC3)ss2)CC1 has a TGI (UO-31 renal) of over 100 µM, a TGI (CAKI-1 renal) of over 100 µM and a TGI (SK-MEL-2 melanoma) of over 100 µM. The TGI (NCI-H522 lung) was over 100 µM, the TGI (A549 NSCLC) was over 100 µM and the TGI (A498 renal) was over 100 µM. It also gave a TGI (OVCAR-4 ovarian) of over 100 µM, a TGI (KM12 colon) of over 100 µM and a TGI (SN12C renal) of over 100 µM. For the same molecule, the TGI (SNB-75 CNS) was over 100 µM, the TGI (SNB-19 CNS) was over 100 µM and the TGI (MALME-3M melanoma) was over 100 µM. For the same molecule, the TGI (SNB-78 CNS) was over 100 µM, the TGI (UACC-62 melanoma) was over 100 µM and the TGI (LOX IMVI melanoma) was over 100 µM. It also gave a TGI (MOLT-4 leukemia) of over 100 µM, a TGI (SK-MEL-28 melanoma) of over 100 µM and a TGI (NCI-H23 lung) of over 100 µM. The TGI (HCT-116 colon) was over 100 µM, the TGI (XF 498 CNS) was over 100 µM and the TGI (SK-OV-3 ovarian) was over 100 µM. It also gave a TGI (HOP-92 NSCLC) of over 100 µM, a TGI (RXF-631 renal) of over 100 µM and a TGI (M19-MEL melanoma) of over 100 µM. For the same molecule, the TGI (IGROV1 ovarian) was over 100 µM, the TGI (SF-539 CNS) was over 100 µM and the TGI (ACHN renal) was over 100 µM. The TGI (K-562 leukemia) was over 100 µM, the TGI (SR leukemia) was over 100 µM and the TGI (HOP-62 NSCLC) was over 100 µM. It also gave a TGI (DLD-1 colon) of over 100 µM, a TGI (SK-MEL-5 melanoma) of over 100 µM and a TGI (OVCAR-5 ovarian) of over 100 µM. For the same molecule, the TGI (TK-10 renal) was over 100 µM, the TGI (HCC-2998 colon) was over 100 µM and the TGI (NCI-H226 lung) was over 100 µM. It also gave a TGI (M14 melanoma) of over 100 µM, a TGI (HCT-15 colon) of over 100 µM and a TGI (786-0 renal) of over 100 µM. The TGI (DMS 273 small cell lung) was over 100 µM, the TGI (RPMI-8226 leukemia) was over 100 µM and the TGI (HL-60(TB) leukemia) was over 100 µM. The TGI (SF-268 CNS) was over 100 µM, the TGI (SW-620 colon) was over 100 µM and the TGI (HT29 colon) was over 100 µM. For the same molecule, the TGI (UACC-257 melanoma) was over 100 µM, the TGI (RXF 393 renal) was over 100 µM and the TGI (EKVX NSCLC) was over 100 µM. It also gave a TGI (NCI-H460 lung) of over 100 µM, a TGI (OVCAR-8 ovarian) of over 100 µM and a TGI (LXFL 529 NSCLC) of over 100 µM. It also gave a TGI (KM20L2 colon) of over 100 µM, a TGI (U251 CNS) of over 100 µM and a TGI (SF-295 CNS) of over 100 µM. For the same molecule, the TGI (HOP-18 NSCLC) was over 100 µM, the TGI (DMS 114 small cell lung) was over 100 µM and the TGI (CCRF-CEM leukemia) was over 100 µM.

For Cc1nc(=O)n2c(c1C(=O)Nc1ccc(Cl)cc1)NCC2, the TGI (A498 renal) was over 100 µM, the TGI (HOP-92 NSCLC) was over 100 µM and the TGI (P388 leukemia) was over 31.6 µM.
